Laboratory results published in patent EP1304333A2, “6,7-Oxygenated steroids and uses related thereto” (Inflazyme Pharmaceuticals, Ltd., priority 1996, dated 1998).

Tests used:
isolated trachea = assay: Allergen (OA)-induced contraction of isolated trachea from sensitized guinea pigs; set-up: species or system guinea pig; conditions: Study 3, 30 µM compound
Experimental: The effects of a number of the compounds described herein on allergen-induced bronchoconstriction were evaluated for anti-asthma activity. The ability of a compound to inhibit allergen-induced decreases in lung function in sensitized guinea pigs in response to antigen-challenge is indicative of anti-asthma activity. In particular, the model system is useful in the evaluation of the potential effects of a compound in the treatment of the early asthmatic reaction (EAR) when severe bronchoconstriction occurs.
Guinea pigs were exposed to a nebulized solution of 1% ovalbumin (OA) in saline for 15 min. […] Tracheal rings were prepared and bathed in Krebs-Henseleit solution at 37°C and aerated with 5% CO2 in O2. Tissues were suspended under a resting tension of 2 g and isometric contractions were measured using force-displacement transducers coupled to a polygraph. Tissues were incubated with each compound or 0.1% dimethylsulfoxide (as a control) for 20 min, after which increasing concentrations of OA (0.001 - 100 µg/ml) were added to the tissue. After the final concentration of OA was added and the response was recorded, the tissues were stimulated with 100 µM methacholine which caused maximum contraction of the trachea. The magnitude of the contraction induced by OA in the presence of each compound was expressed as a percentage of the maximum contraction obtained using methacholine (100 µM).

sensitized guinea pigs = assay: Allergen-induced changes in lung resistance and lung compliance in vivo; set-up: species or system guinea pig; conditions: 50 µg/kg inhalation
Experimental: In addition, the effect of compounds of the invention on lung function in vivo was determined in sensitized animals as follows: • Female Cam Hartley guinea pigs (350-400 g) are sensitized to ovalbumin by exposure of the guinea pigs to a nebulized solution of 1% ovalbumin in saline for 15 minutes. After 10-12 days, the animals are found to be acutely sensitized to the allergen (ovalbumin). Animals are treated by oral gavage, under light halothane anesthesia, with 300 µl polyethyleneglycol-200 (PEG) or 5 mg/Kg of test compound in 300 µl of PEG. Animals are treated once daily for 4 days with the final dose administered 2 hours prior to allergen challenge. Alternatively, compounds were delivered by inhalation, using a Hudson nebulizer driven by 6psi oxygen, providing a single dose of 50 µg/Kg 20 min prior to challenge.
An animal is anaesthetized using ketamine ([…]; i.p.) and xylazine (10 mg/Kg; i.p.) and 1% halothane during the surgical procedure. A tracheostomy is performed and a water-filled esophageal cannula is inserted prior to positioning the animal in a body plethysmograph. The tracheal cannula is attached to a fixed tracheal cannula in the plethysmograph. Cardiac function is monitored using electrocardiography. The animal is paralyzed using pancuronium bromide (0.8 mg/Kg; i.m.) and ventilated with 3 ml tidal breaths using a Harvard small animal ventilator, at a frequency of 60 breaths per minute. Pulmonary resistance and dynamic lung compliance data are obtained from volume, flow and transpulmonary pressure signals using multipoint analysis.
Pulmonary function is continually monitored throughout the experiment and measurements of lung resistance and lung compliance are made at various time-points (e.g., 0, 1, 2, 3, 4, 5, 10, 20 and 30 min) following antigen challenge. Data is collected on a computer-linked physiological measurement system using DIREC Physiological recording software and analyzed using ANADAT software designed for lung mechanics measurements. This software was obtained from RHT-InfoDat Inc., Montreal, Quebec, Canada.
Once baseline resistance and compliance measurements are obtained, the animal is challenged with 6 breaths of saline. After 10 minutes, during which time no alterations in lung function should occur, the animal is challenged with 6 breaths of 2 or 3% ovalbumin in saline (as the antigen stimulus). Saline and antigen are delivered in each breath using a Hudson nebulizer.

[1] = tested on: Ascaris suum sensitized sheep; assay: Allergic sheep model of asthma (specific lung resistance, hyperresponsiveness to carbachol); type: in vivo; conditions: 400 µg/kg 30 min prior to and 4 hrs after challenge, inhalation; -0.5 hr
Experimental: The model is conscious, where the animals are breathing spontaneously, allowing measurement of airways bronchoconstriction and acute airway hyperresponsiveness.
Sheep which were naturally sensitized to Ascaris suum (30-40 Kg) were intubated with an endotracheal tube and a balloon catheter, positioned in the lower esophagus. Pleural pressure was estimated with the esophageal catheter, while later pressure was measured with a side-hole catheter advanced through and positioned distal to the tip of the endotracheal tube. Transpulmonary pressure differences between the trachea and pleural pressures were measured with a differential pressure transducer catheter system.
The proximal end of the endotracheal tube was connected to a Fleisch pneumotachograph in order to measure flow changes. Pulmonary resistance (RL) was calculated from pressure measurements of transpulmonary pressure, respiratory volume (from digital integration of the flow signal) and flow by the mid-flow technique. SRL was calculated as RL·Vtg (Vtg=thoracic gas volume).
Aerosols generated using a disposable nebulizer, were directed into a T-piece connected to a Harvard respirator and the tracheal tube in series. […]
Specific lung resistance (SRL) was measured every 60 min for 8 hours after antigen challenge. Airways hyperresponsiveness to carbachol was measured 24 hours after the initial challenge.

[2] = tested on: sensitized Brown Norway rats; assay: Allergen-induced lung inflammation (inflammatory cells in lung lavage fluid); type: in vivo, rat; conditions: 5 mg/kg/day for 4 days, p.o.; OA challenge; lavage 48 hours after challenge
From the text: The ability of a compound to inhibit the allergen-induced accumulation of inflammatory cells such as eosinophils and neutrophils in the lavage fluid obtained from sensitized animals is indicative of anti-asthma activity. In particular, the model system is useful in the evaluation of the effects of compounds in the treatment of the late-phase response of asthma, when lung inflammation and the second phase of bronchoconstriction is apparent.
Male Brown Norway rats (200-250 g) are sensitized to ovalbumin by an intraperitoneal injection of 1 mg ovalbumin and 100 mg aluminum hydroxide in 1 ml of sterile saline. After 21 days the animals are found to be sensitized to ovalbumin. Animals are treated with drug or vehicle (0.3 ml PEG-200) once daily for 4 days by oral gavage. The animals are challenged by exposure, for a period of 60 minutes, to nebulized solution of 0.5% ovalbumin in saline generated using a Devillbis nebulizer. The final dose of drug is given 24 hours after challenge. Forty eight hours after challenge the animals are euthanized by an overdose of halothane and the lungs are lavaged with 7 x 2 mLs of sterile saline (room temperature). The recovered lavage fluid is placed on ice and centrifuged at 1200 rpm to separate the cells from the supernatant. The cells are exposed briefly to Tris/ammonium chloride, pH 7.3 to remove any red cells, and washed in phosphate buffered saline. Cytospins of each cell sample are prepared and stained for the presence of cells containing peroxidase and for the determination of the numbers of eosinophils and neutrophils. The numbers of inflammatory cells are expressed as a percentage of the total number of cells recovered in the lavage fluid.

How did the “percentage contraction compared to 100µM methacholine (100%)” value (“percentage contraction … (100%)” for short) (isolated trachea; 0.001 µg/ml OA) turn out when “3α,6α,7β-trihydroxy-17(20)-pregnene [Compound 330]” was run?
The value was 0%.

What about the “percentage contraction … (100%)” value (isolated trachea; 0.01 µg/ml OA) of the same substance?
The value was 1.90%.

What about the “percentage contraction … (100%)” value (isolated trachea; 0.1 µg/ml OA) of the same substance?
Its value is 9.00%.

What about the “percentage contraction … (100%)” value (isolated trachea; 1 µg/ml OA) of the same substance?
The value was 17.5%.

What about the “percentage contraction … (100%)” value (isolated trachea; 10 µg/ml OA) of the same substance?
Its value is 26.0%.

And the “percentage contraction … (100%)” value (isolated trachea; 100 µg/ml OA)?
Its value is 30.0%.

And the “Lung Compliance” value (sensitized guinea pigs; 1 min after challenge)?
Its value is 0.349±0.059 ml/cm H2O.

And the “Lung Resistance” value (sensitized guinea pigs; 1 min after challenge)?
Its value is 0.382±0.033 cm H2O/ml/sec.

What about the “Lung Compliance” value (sensitized guinea pigs; 2 min after challenge) of the same substance?
Its value is 0.213±0.046 ml/cm H2O.

And the “Lung Resistance” value (sensitized guinea pigs; 2 min after challenge)?
The value was 0.420±0.044 cm H2O/ml/sec.

What about the “Lung Compliance” value (sensitized guinea pigs; 3 min after challenge) of the same substance?
Its value is 0.176±0.045 ml/cm H2O.

And the “Lung Resistance” value (sensitized guinea pigs; 3 min after challenge)?
The value was 0.420±0.051 cm H2O/ml/sec.

What about the “Lung Compliance” value (sensitized guinea pigs; 4 min after challenge) of the same substance?
Its value is 0.145±0.046 ml/cm H2O.

And the “Lung Resistance” value (sensitized guinea pigs; 4 min after challenge)?
Its value is 0.455±0.047 cm H2O/ml/sec.

And the “Lung Compliance” value (sensitized guinea pigs; 5 min after challenge)?
The value was 0.146±0.031 ml/cm H2O.

What about the “Lung Resistance” value (sensitized guinea pigs; 5 min after challenge) of the same substance?
Its value is 0.446±0.124 cm H2O/ml/sec.

What about the “Lung Compliance” value (sensitized guinea pigs; 10 min after challenge) of the same substance?
Its value is 0.138±0.022 ml/cm H2O.

And the “Lung Resistance” value (sensitized guinea pigs; 10 min after challenge)?
Its value is 0.436±0.036 cm H2O/ml/sec.

What about the “Lung Compliance” value (sensitized guinea pigs; 20 min after challenge) of the same substance?
The value was 0.193±0.054 ml/cm H2O.

What about the “Lung Resistance” value (sensitized guinea pigs; 20 min after challenge) of the same substance?
The value was 0.413±0.076 cm H2O/ml/sec.

What about the “Lung Compliance” value (sensitized guinea pigs; 30 min after challenge) of the same substance?
Its value is 0.181±0.046 ml/cm H2O.

And the “Lung Resistance” value (sensitized guinea pigs; 30 min after challenge)?
The value was 0.412±0.072 cm H2O/ml/sec.

And the “Lung Compliance” value (sensitized guinea pigs; Baseline)?
The value was 0.463±0.129 ml/cm H2O.

And the “Lung Resistance” value (sensitized guinea pigs; Baseline)?
Its value is 0.300±0.025 cm H2O/ml/sec.

And the “Lung Compliance” value (sensitized guinea pigs; OA/10 s)?
Its value is 0.565±0.062 ml/cm H2O.

What about the “Lung Resistance” value (sensitized guinea pigs; OA/10 s) of the same substance?
The value was 0.288±0.036 cm H2O/ml/sec.

What about the “Specific Lung Resistance (% Baseline)” value [1] of the same substance?
The value was 0±4 % Baseline.

And the “Percentage Total Cells Recovered in Lavage Fluid: Cells Stained Positive for Peroxidase” value [2]?
The value was 5.65 ± 2.44 %.

What about the “Percentage Total Cells Recovered in Lavage Fluid: Eosinophils” value [2] of the same substance?
The value was 1.98 ± 0.78 %.

What about the “Percentage Total Cells Recovered in Lavage Fluid: Neutrophils” value [2] of the same substance?
The value was 6.16 ± 4.54%.
